Patent US20140114067A1, “BENZIMIDAZOLE DERIVATIVES AS MITOCHONDRIAL FUNCTION MODULATORS” (KOREA INSTITUTE OF SCIENCE AND TECHNOLOGY, priority 2012, published 2014)

test system: HT-22 cells; assay: Recovery of ATP production capability reduced by amyloid beta (luciferin/luciferase); type: cell-based; settings: compound 5 μM, amyloid beta 5 μM, 7 hours, amyloid beta vehicle control without drug = 0%
Method: (§1) Meanwhile, the compound represented by Formula 1 according to the present invention is evaluated through a test to determine recovery of mitochondrial functions damaged by amyloid beta, as described in the following Test Example. After the test, the results are shown in terms of the percentages of mitochondrial function disorder caused by amyloid beta. The degree of mitochondrial function disorder caused by amyloid beta is taken as 0% and the normal condition in the absence of amyloid beta is shown as 100%.
To a transparent 96-well plate, HT-22 cells are inoculated in a number of 10,000 per well one day before the test, followed by treatment with each compound to a final concentration of 5 μM per well. The cells are cultured at 37° C. for 10 minutes. Particularly, for each drug, two wells are treated with amyloid beta (5 μM) and the other two wells are treated with the vehicle control (5 μM DMSO). After the treatment, the cells are cultured at 37° C. for 7 hours. The cells treated with each drug are washed twice with PBS, lysed with Triton X-100 (1% in TSBT buffer) and agitated at room temperature for 5 minutes. […] is used to determine the protein amount of each well, and the same amount of protein taken from each well is added to a white 96-well plate. Then, […] (Molecular Probe, USA) for ATP determination containing d-luciferin and luciferase is added thereto and emission peaks generated from each of the wells are determined. After the determination, the peaks are normalized by taking the vehicle control to which amyloid beta is added without treatment with any drug as 0%.

| SMILES | ATP Production Capability Recovery (%) (5 μM) |
| --- | --- |
| Cc1cccc(C(C)(C)C)c1NC(=O)Cn1c(-c2ccccc2)nc2ccccc21 [Compound 16, N-(2-tert-butyl-6-methylphenyl)-2-(2-phenyl-1H-benzo[d]imidazol-1-yl)acetamide] | 55 |
| COc1ccc(OC)c(Cc2nc3ccccc3n2CC(=O)Nc2cc(C(C)(C)C)cc(C(C)(C)C)c2)c1 [Compound 17, N-(3,5-di-tert-butylphenyl)-2-(2-(2,5-dimethoxybenzyl)-1H-benzo[d]imidazol-1-yl)acetamide] | 46 |
| COc1ccc(OC)c(Cc2nc3ccccc3n2CC(=O)Nc2cc(Cl)cc(Cl)c2)c1 [Compound 18, N-(3,5-dichlorophenyl)-2-(2-(2,5-dimethoxybenzyl)-1H-benzo[d]imidazol-1-yl)acetamide] | 94 |

test system: HT-22 cells; assay: Improvement in mitochondrial membrane potential dropped by amyloid beta (JC-1 dye); type: cell-based; settings: compound 5 μM, amyloid beta 5 μM, 3 hours, JC-1 green:red ratio, amyloid beta damage = 0%, normal = 100%
Method: as §1
To a transparent 96-well plate, HT-22 cells are inoculated in a number of 30,000 per well one day before the test. On the next day, JC-1 dye (Stratagen, USA) is diluted with Opti-MEM containing no phenol red to a concentration of 7.5 μM, and the resultant dilution is used to treat the cells for 1 hour and 15 minutes. The dyed cells are washed twice with phosphate buffer solution (PBS), followed by treatment with each compound to a final concentration of 5 μM per well. Then, the cells are cultured at 37° C. for 10 minutes. Particularly, for each drug, two wells are treated with amyloid beta (5 μM) and the other two wells are treated with the vehicle control (5 μM DMSO). Then, the cells are cultured at 37° C. for 3 hours. The fluorescence intensity of each well is read by using a fluorescence plate reader at 485/535 nm (green/J-monomer) and 560/595 nm (red/J-aggregate). Then, the ratio of green:red is calculated and the results are normalized by taking the change of the ratio between addition of amyloid beta and no-addition of amyloid beta in the vehicle control non-treated with drugs as 100%.

| SMILES | Improvement in Membrane Potential (%) (5 μM) |
| --- | --- |
| COc1ccc(OC)c(-c2nc3ccccc3n2CC(=O)Nc2cc(C(C)C)ccc2C)c1 [Compound 1, 2-(2-(2,5-dimethoxyphenyl)-1H-benzo[d]imidazol-1-yl)-N-(5-isopropyl-2-methylphenyl)acetamide] | 41 |
| Cc1ccc(C(C)C)cc1NC(=O)Cn1c(-c2ccccc2)nc2ccccc21 [Compound 4, N-(5-isopropyl-2-methylphenyl)-(2-phenyl-1H-benzo[d]imidazol-1-yl)acetamide] | 91 |
| O=C(Cn1c(-c2cc(Cl)ccc2Cl)nc2ccccc21)Nc1cc(Cl)cc(Cl)c1 [Compound 5, N-(3,5-dichlorophenyl)-2-(2-(2,5-dichlorophenyl)-1H-benzo[d]imidazol-1-yl)acetamide] | 91 |
| Cc1cccc(C(C)(C)C)c1NC(=O)Cn1c(-c2cc(Cl)ccc2Cl)nc2ccccc21 [Compound 7, N-(2-tert-butyl-6-methylphenyl)-2-(2-(2,5-dichlorophenyl)-1H-benzo[d]imidazol-1-yl)acetamide] | 41 |
| Cc1cccc(C(C)(C)C)c1NC(=O)Cn1c(Cc2ccccc2)nc2ccccc21 [Compound 12, 2-(2-benzyl-1H-benzo[d]imidazol-1-yl)-N-(2-tert-butyl-6-methylphenyl)acetamide] | 38 |
| CC(C)(C)c1cc(NC(=O)Cn2c(-c3ccccc3)nc3ccccc32)cc(C(C)(C)C)c1 [Compound 13, N-(3,5-di-tert-butylphenyl)-2-(2-phenyl-1H-benzo[d]imidazol-1-yl)acetamide] | 86 |
| Cc1ccc(C(C)C)cc1NC(=O)Cn1c(-c2ccccc2)nc2ccccc21 [Compound 14, N-(5-isopropyl-2-methylphenyl)-2-(2-phenyl-1H-benzo[d]imidazol-1-yl)acetamide] | 73 |
| O=C(Cn1c(-c2ccccc2)nc2ccccc21)Nc1cc(Cl)cc(Cl)c1 [Compound 15, N-(3,5-dichlorophenyl)-2-(2-phenyl-1H-benzo[d]imidazol-1-yl)acetamide] | 69 |
| Cc1cccc(C(C)(C)C)c1NC(=O)Cn1c(-c2ccccc2)nc2ccccc21 [Compound 16, N-(2-tert-butyl-6-methylphenyl)-2-(2-phenyl-1H-benzo[d]imidazol-1-yl)acetamide] | 65 |
| COc1ccc(OC)c(Cc2nc3ccccc3n2CC(=O)Nc2cc(C(C)(C)C)cc(C(C)(C)C)c2)c1 [Compound 17, N-(3,5-di-tert-butylphenyl)-2-(2-(2,5-dimethoxybenzyl)-1H-benzo[d]imidazol-1-yl)acetamide] | 54 |
| COc1ccc(OC)c(Cc2nc3ccccc3n2CC(=O)Nc2cc(Cl)cc(Cl)c2)c1 [Compound 18, N-(3,5-dichlorophenyl)-2-(2-(2,5-dimethoxybenzyl)-1H-benzo[d]imidazol-1-yl)acetamide] | 68 |
| COc1ccc(OC)c(Cc2nc3ccccc3n2CC(=O)Nc2cc(C(C)C)ccc2C)c1 [Compound 19, 2-(2-(2,5-dimethoxybenzyl)-1H-benzo[d]imidazol-1-yl)-N-(5-isopropyl-2-methylphenyl)acetamide] | 81 |
| Cc1ccc(C(C)C)cc1NC(=O)Cn1c(Cc2ccc(Cl)c(Cl)c2)nc2ccccc21 [Compound 21, 2-(2-(3,4-dichlorobenzyl)-1H-benzo[d]imidazol-1-yl)-N-(5-isopropyl-2-methylphenyl)acetamide] | 57 |
| CC(C)(C)c1cc(NC(=O)Cn2c(Cc3ccc(Cl)c(Cl)c3)nc3ccccc32)cc(C(C)(C)C)c1 [Compound 24, N-(3,5-di-tert-butylphenyl)-2-(2-(3,4-dichlorobenzyl)-1H-benzo[d]imidazol-1-yl)acetamide] | 42 |
| Cc1ccc(C(C)C)cc1NC(=O)Cn1c(-c2cc(Cl)ccc2Cl)nc2cc(Cl)ccc21 [Compound 26, 2-(5-chloro-2-(2,5-dichlorophenyl)-1H-benzo[d]imidazol-1-yl)-N-(5-isopropyl-2-methylphenyl)acetamide] | 60 |
| O=C(Cn1c(-c2cc(Cl)ccc2Cl)nc2cc(Cl)ccc21)Nc1cc(Cl)cc(Cl)c1 [Compound 27, 2-(5-chloro-2-(2,5-dichlorophenyl)-1H-benzo[d]imidazol-1-yl)-N-(3,5-dichlorophenyl)acetamide] | 77 |
| CN1CCC(NC(=O)c2ccc(Cn3c(Cc4c(Cl)cccc4Cl)nc4ccccc43)cc2)CC1 [Compound 33, 4-((2-(2,6-dichlorobenzyl)-1H-benzo[d]imidazol-1-yl)methyl)-N-(1-methylpiperidin-4-yl)benzamide] | 81 |
| O=C(NCCCN1CCCC1)c1ccc(Cn2c(Cc3c(Cl)cccc3Cl)nc3ccccc32)cc1 [Compound 35, 4-((2-(2,6-dichlorobenzyl)-1H-benzo[d]imidazol-1-yl)methyl)-N-(3-(pyrrolidin-1-yl)propyl)benzamide] | 79 |
| CN1CCN(CCCNC(=O)c2ccc(Cn3c(Cc4c(Cl)cccc4Cl)nc4ccccc43)cc2)CC1 [Compound 36, 4-((2-(2,6-dichlorobenzyl)-1H-benzo[d]imidazol-1-yl)methyl)-N-(3-(4-methylpiperazin-1-yl)propyl)benzamide] | 86 |
| O=C(NCCN1CCCCC1)c1ccc(Cn2c(Cc3c(Cl)cccc3Cl)nc3ccccc32)cc1 [Compound 38, 4-((2-(2,6-dichlorobenzyl)-1H-benzo[d]imidazol-1-yl)methyl)-N-(3-(piperidin-1-yl)ethyl)benzamide] | 89 |
| O=C(NCCCN1CCOCC1)c1ccc(Cn2c(Cc3c(Cl)cccc3Cl)nc3ccccc32)cc1 [Compound 39, 4-((2-(2,6-dichlorobenzyl)-1H-benzo[d]imidazol-1-yl)methyl)-N-(3-morpholinopropyl)benzamide] | 76 |
| CCN1CCCC1CNC(=O)c1ccc(Cn2c(CC(=O)Nc3cc(C(C)C)ccc3C)nc3ccccc32)cc1 (stereo not shown) [Compound 41, N-((1-ethylpyrrolidin-2-yl)methyl)-4-((2-(2-(5-isopropyl-2-methylphenylamino)-2-oxoethyl)-1H-benzo[d]imidazol-1-yl)methyl)benzamide] | 68 |
| Cc1ccc(C(C)C)cc1NC(=O)Cc1nc2ccccc2n1Cc1ccc(C(=O)NCCCN(C)C)cc1 [Compound 42, N-(3-(dimethylamino)propyl)-4-((2-(2-(5-isopropyl-2-methylphenylamino)2-oxoethyl)-1H-benzo[d]imidazol-1-yl)methyl)benzamide] | 68 |
| CCN1CCCC1CNC(=O)c1ccc(CSc2nc3ccccc3n2CC(=O)Nc2cc(C(C)C)ccc2C)cc1 (stereo not shown) [Compound 43, N-((1-ethylpyrrolidin-2-yl)methyl)-4-((1-(2-(5-isopropyl-2-methylphenylamino)2-oxoethyl)-1H-benzo[d]imidazol-2-ylthio)methyl)benzamide] | 70 |
| Cc1ccc(C(C)C)cc1NC(=O)Cc1nc2ccccc2n1Cc1ccc(C(=O)NCCCN2CCCCC2)cc1 [Compound 44] | 80 |
| Cc1ccc(C(C)C)cc1NC(=O)Cn1c(SCc2ccc(C(=O)NCCCN(C)C)cc2)nc2ccccc21 [Compound 45, N-(3-(dimethylamino)propyl)-4-((1-(2-(5-isopropyl-2-methylphenylamino)-2-oxoethyl)-1H-benzo[d]imidazol-2-ylthio)methyl)benzamide] | 59 |
| Cc1ccc(C(C)C)cc1NC(=O)Cn1c(SCc2ccc(C(=O)NCCCN3CCCCC3)cc2)nc2ccccc21 [Compound 46] | 67 |
| CN(C)C(=O)c1ccc(Cn2c(Cc3c(Cl)cccc3Cl)nc3ccccc32)cc1 [Compound 47, 4-((2-(2,6-dichlorobenzyl)-1H-benzo[d]imidazol-1-yl)methyl)-N,N-dimethylbenzamide] | 73 |
